Measured values as given in PubChem BioAssay (NCI).
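48-hour exposure; five concentrations; linearly interpolated endpoints. Definition used: TGI = concentration required for complete inhibition of growth.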

Assays:
Experiment in all cases: NCI-60 cell line screen, 48 h
XF 498 CNS = system: XF 498 CNS
OVCAR-3 ovarian = system: OVCAR-3 ovarian
HOP-92 NSCLC = system: HOP-92 NSCLC
MALME-3M melanoma = system: MALME-3M melanoma
ACHN renal = system: ACHN renal
A549 NSCLC = system: A549 NSCLC
IGROV1 ovarian = system: IGROV1 ovarian
SW-620 colon = system: SW-620 colon
UACC-62 melanoma = system: UACC-62 melanoma
SNB-75 CNS = system: SNB-75 CNS
NCI-H460 lung = system: NCI-H460 lung
NCI-H226 lung = system: NCI-H226 lung
DMS 273 small cell lung = system: DMS 273 small cell lung
UO-31 renal = system: UO-31 renal
K-562 leukemia = system: K-562 leukemia
A498 renal = system: A498 renal
HOP-18 NSCLC = system: HOP-18 NSCLC
TK-10 renal = system: TK-10 renal
SF-539 CNS = system: SF-539 CNS
NCI-H522 lung = system: NCI-H522 lung
OVCAR-5 ovarian = system: OVCAR-5 ovarian
NCI-H23 lung = system: NCI-H23 lung
M19-MEL melanoma = system: M19-MEL melanoma
SK-MEL-2 melanoma = system: SK-MEL-2 melanoma
SNB-19 CNS = system: SNB-19 CNS
MOLT-4 leukemia = system: MOLT-4 leukemia
HCT-116 colon = system: HCT-116 colon
HOP-62 NSCLC = system: HOP-62 NSCLC
KM12 colon = system: KM12 colon
RPMI-8226 leukemia = system: RPMI-8226 leukemia
SK-MEL-5 melanoma = system: SK-MEL-5 melanoma
UACC-257 melanoma = system: UACC-257 melanoma
OVCAR-4 ovarian = system: OVCAR-4 ovarian
SF-268 CNS = system: SF-268 CNS
SN12C renal = system: SN12C renal
COLO 205 colon = system: COLO 205 colon
HCC-2998 colon = system: HCC-2998 colon
DLD-1 colon = system: DLD-1 colon
HT29 colon = system: HT29 colon
786-0 renal = system: 786-0 renal
SR leukemia = system: SR leukemia
SF-295 CNS = system: SF-295 CNS
SK-OV-3 ovarian = system: SK-OV-3 ovarian
LXFL 529 NSCLC = system: LXFL 529 NSCLC
U251 CNS = system: U251 CNS
SK-MEL-28 melanoma = system: SK-MEL-28 melanoma
LOX IMVI melanoma = system: LOX IMVI melanoma
M14 melanoma = system: M14 melanoma
CAKI-1 renal = system: CAKI-1 renal
CCRF-CEM leukemia = system: CCRF-CEM leukemia
RXF 393 renal = system: RXF 393 renal
DMS 114 small cell lung = system: DMS 114 small cell lung
EKVX NSCLC = system: EKVX NSCLC
OVCAR-8 ovarian = system: OVCAR-8 ovarian
KM20L2 colon = system: KM20L2 colon
HL-60(TB) leukemia = system: HL-60(TB) leukemia
HCT-15 colon = system: HCT-15 colon
SNB-78 CNS = system: SNB-78 CNS

## [N-]=[N+]=NC1C2CC3C4CC5CC3[C@H](C2)C(C5)C41 (stereo partly drawn)
XF 498 CNS
  TGI: > 100 µM
OVCAR-3 ovarian
  TGI: > 100 µM
HOP-92 NSCLC
  TGI: > 100 µM
MALME-3M melanoma
  TGI: > 100 µM
ACHN renal
  TGI: > 100 µM
A549 NSCLC
  TGI: > 100 µM
IGROV1 ovarian
  TGI: > 100 µM
SW-620 colon
  TGI: > 100 µM
UACC-62 melanoma
  TGI: > 100 µM
SNB-75 CNS
  TGI: > 100 µM
NCI-H460 lung
  TGI: > 100 µM
NCI-H226 lung
  TGI: > 100 µM
DMS 273 small cell lung
  TGI: > 100 µM
UO-31 renal
  TGI: > 100 µM
K-562 leukemia
  TGI: > 100 µM
A498 renal
  TGI: > 100 µM
HOP-18 NSCLC
  TGI: > 100 µM
TK-10 renal
  TGI: > 100 µM
SF-539 CNS
  TGI: > 100 µM
NCI-H522 lung
  TGI: > 100 µM
OVCAR-5 ovarian
  TGI: > 100 µM
NCI-H23 lung
  TGI: > 100 µM
M19-MEL melanoma
  TGI: > 100 µM
SK-MEL-2 melanoma
  TGI: > 100 µM
SNB-19 CNS
  TGI: > 100 µM
MOLT-4 leukemia
  TGI: > 100 µM
HCT-116 colon
  TGI: > 100 µM
HOP-62 NSCLC
  TGI: > 100 µM
KM12 colon
  TGI: > 100 µM
RPMI-8226 leukemia
  TGI: > 100 µM
SK-MEL-5 melanoma
  TGI: > 100 µM
UACC-257 melanoma
  TGI: > 100 µM
OVCAR-4 ovarian
  TGI: > 100 µM
SF-268 CNS
  TGI: > 100 µM
SN12C renal
  TGI: > 100 µM
COLO 205 colon
  TGI: > 100 µM
HCC-2998 colon
  TGI: > 100 µM
DLD-1 colon
  TGI: > 100 µM
HT29 colon
  TGI: > 100 µM
786-0 renal
  TGI: > 100 µM
SR leukemia
  TGI: > 100 µM
SF-295 CNS
  TGI: > 100 µM
SK-OV-3 ovarian
  TGI: > 100 µM
LXFL 529 NSCLC
  TGI: > 100 µM
U251 CNS
  TGI: > 100 µM
SK-MEL-28 melanoma
  TGI: > 100 µM
LOX IMVI melanoma
  TGI: > 100 µM
M14 melanoma
  TGI: > 100 µM
CAKI-1 renal
  TGI: > 100 µM
CCRF-CEM leukemia
  TGI: > 100 µM
RXF 393 renal
  TGI: > 100 µM
DMS 114 small cell lung
  TGI: > 100 µM
EKVX NSCLC
  TGI: > 100 µM
OVCAR-8 ovarian
  TGI: > 100 µM

## NC(=O)NN/C=C(/C=Nc1ccccc1)[N+](=O)[O-]
XF 498 CNS
  TGI: > 100 µM
OVCAR-3 ovarian
  TGI: > 100 µM
HOP-92 NSCLC
  TGI: > 100 µM
ACHN renal
  TGI: > 100 µM
A549 NSCLC
  TGI: > 100 µM
IGROV1 ovarian
  TGI: > 100 µM
SW-620 colon
  TGI: > 100 µM
UACC-62 melanoma
  TGI: > 100 µM
NCI-H460 lung
  TGI: > 100 µM
DMS 273 small cell lung
  TGI: > 100 µM
UO-31 renal
  TGI: > 100 µM
K-562 leukemia
  TGI: > 100 µM
HOP-18 NSCLC
  TGI: > 100 µM
TK-10 renal
  TGI: > 100 µM
NCI-H522 lung
  TGI: > 100 µM
NCI-H23 lung
  TGI: > 100 µM
M19-MEL melanoma
  TGI: > 100 µM
SNB-19 CNS
  TGI: > 100 µM
MOLT-4 leukemia
  TGI: > 100 µM
HCT-116 colon
  TGI: > 100 µM
HOP-62 NSCLC
  TGI: > 100 µM
RPMI-8226 leukemia
  TGI: > 100 µM
KM20L2 colon
  TGI: > 100 µM
SK-MEL-5 melanoma
  TGI: > 100 µM
UACC-257 melanoma
  TGI: > 100 µM
OVCAR-4 ovarian
  TGI: > 100 µM
SF-268 CNS
  TGI: > 100 µM
HL-60(TB) leukemia
  TGI: > 100 µM
SN12C renal
  TGI: > 100 µM
COLO 205 colon
  TGI: > 100 µM
HCC-2998 colon
  TGI: > 100 µM
DLD-1 colon
  TGI: > 100 µM
HT29 colon
  TGI: > 100 µM
786-0 renal
  TGI: > 100 µM
SR leukemia
  TGI: > 100 µM
SF-295 CNS
  TGI: > 100 µM
SK-OV-3 ovarian
  TGI: > 100 µM
LXFL 529 NSCLC
  TGI: > 100 µM
U251 CNS
  TGI: > 100 µM
HCT-15 colon
  TGI: > 100 µM
SK-MEL-28 melanoma
  TGI: > 100 µM
LOX IMVI melanoma
  TGI: > 100 µM
M14 melanoma
  TGI: > 100 µM
CCRF-CEM leukemia
  TGI: > 100 µM
RXF 393 renal
  TGI: > 100 µM
DMS 114 small cell lung
  TGI: > 100 µM
EKVX NSCLC
  TGI: > 100 µM
OVCAR-8 ovarian
  TGI: > 100 µM

## CCOP1(=O)C=CC(Cl)=C(C)C1 (stereo not drawn)
XF 498 CNS
  TGI: 34.3 µM
OVCAR-3 ovarian
  TGI: 35 µM
HOP-92 NSCLC
  TGI: 34.3 µM
MALME-3M melanoma
  TGI: 29 µM
ACHN renal
  TGI: 24.8 µM
A549 NSCLC
  TGI: > 100 µM
IGROV1 ovarian
  TGI: 55.1 µM
SW-620 colon
  TGI: 30.4 µM
UACC-62 melanoma
  TGI: 32.2 µM
SNB-75 CNS
  TGI: 19.9 µM
NCI-H460 lung
  TGI: 74.3 µM
NCI-H226 lung
  TGI: > 100 µM
UO-31 renal
  TGI: > 71.5 µM
K-562 leukemia
  TGI: 20.4 µM
A498 renal
  TGI: > 71.1 µM
HOP-18 NSCLC
  TGI: 31.2 µM
TK-10 renal
  TGI: 34.2 µM
SF-539 CNS
  TGI: 43.6 µM
NCI-H522 lung
  TGI: 17.3 µM
OVCAR-5 ovarian
  TGI: 50.2 µM
NCI-H23 lung
  TGI: 18.1 µM
M19-MEL melanoma
  TGI: > 57.3 µM
SK-MEL-2 melanoma
  TGI: 27.5 µM
SNB-19 CNS
  TGI: > 100 µM
MOLT-4 leukemia
  TGI: 19.9 µM
HCT-116 colon
  TGI: 44.7 µM
HOP-62 NSCLC
  TGI: 70 µM
KM12 colon
  TGI: 33.5 µM
RPMI-8226 leukemia
  TGI: > 59.4 µM
KM20L2 colon
  TGI: 31.8 µM
SK-MEL-5 melanoma
  TGI: 36.5 µM
UACC-257 melanoma
  TGI: 39.8 µM
OVCAR-4 ovarian
  TGI: 30.7 µM
SF-268 CNS
  TGI: 56.9 µM
HL-60(TB) leukemia
  TGI: 15.3 µM
SN12C renal
  TGI: 16.3 µM
COLO 205 colon
  TGI: 44.4 µM
HCC-2998 colon
  TGI: 29.6 µM
SNB-78 CNS
  TGI: 47.5 µM
DLD-1 colon
  TGI: 25.4 µM
HT29 colon
  TGI: 28.5 µM
786-0 renal
  TGI: 30.6 µM
SF-295 CNS
  TGI: > 100 µM
SK-OV-3 ovarian
  TGI: > 100 µM
LXFL 529 NSCLC
  TGI: 25.9 µM
U251 CNS
  TGI: 65.3 µM
HCT-15 colon
  TGI: 30.1 µM
SK-MEL-28 melanoma
  TGI: 30.3 µM
LOX IMVI melanoma
  TGI: 39 µM
M14 melanoma
  TGI: 29 µM
CAKI-1 renal
  TGI: 23.7 µM
CCRF-CEM leukemia
  TGI: 12 µM
RXF 393 renal
  TGI: 14.3 µM
DMS 114 small cell lung
  TGI: 39.4 µM
EKVX NSCLC
  TGI: > 56.8 µM
OVCAR-8 ovarian
  TGI: 71.6 µM
